The target of data set [1] is T1, Peroxisome proliferator-activated receptor alpha (Homo sapiens, UniProt Q07869).
T1 sequence (Q07869 whole entry): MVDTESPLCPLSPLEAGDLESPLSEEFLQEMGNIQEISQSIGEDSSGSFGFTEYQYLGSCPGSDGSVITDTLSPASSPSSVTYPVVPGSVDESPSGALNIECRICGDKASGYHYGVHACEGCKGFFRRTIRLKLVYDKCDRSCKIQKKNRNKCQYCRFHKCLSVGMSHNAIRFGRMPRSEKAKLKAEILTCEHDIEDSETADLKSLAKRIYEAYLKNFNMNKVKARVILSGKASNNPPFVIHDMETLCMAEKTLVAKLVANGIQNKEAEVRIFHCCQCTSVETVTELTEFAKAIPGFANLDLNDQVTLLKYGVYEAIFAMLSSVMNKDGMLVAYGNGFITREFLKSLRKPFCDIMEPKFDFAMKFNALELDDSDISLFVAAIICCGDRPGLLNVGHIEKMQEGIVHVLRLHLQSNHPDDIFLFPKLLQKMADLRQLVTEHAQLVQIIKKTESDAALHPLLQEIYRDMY
Briefly: Agonist activity at human PPARalpha measured by dual luciferase reporter gene assay.

The target of data set [2] is T2, Peroxisome proliferator-activated receptor delta (Homo sapiens, UniProt Q03181).
T2 sequence (Q03181 whole entry): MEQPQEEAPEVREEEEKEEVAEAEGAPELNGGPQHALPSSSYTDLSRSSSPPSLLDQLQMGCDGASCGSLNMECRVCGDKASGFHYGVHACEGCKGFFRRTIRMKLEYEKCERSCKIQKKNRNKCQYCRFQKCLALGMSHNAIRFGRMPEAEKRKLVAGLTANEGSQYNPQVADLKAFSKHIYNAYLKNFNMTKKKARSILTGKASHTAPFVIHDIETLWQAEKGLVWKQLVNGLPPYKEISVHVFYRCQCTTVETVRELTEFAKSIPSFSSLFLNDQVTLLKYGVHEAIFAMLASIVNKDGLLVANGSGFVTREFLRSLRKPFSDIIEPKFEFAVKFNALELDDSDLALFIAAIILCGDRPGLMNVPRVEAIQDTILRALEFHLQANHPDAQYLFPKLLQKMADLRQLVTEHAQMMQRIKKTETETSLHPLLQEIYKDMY
The data set can be described thus: Agonist activity at human PPARdelta measured by dual luciferase reporter gene assay. In general terms: A reporter such as luciferase makes a cellular process visible.

Data set [3] deals with Free fatty acid receptor 1 (Homo sapiens, UniProt O14842). Briefly: Agonist activity at human FFA1 expressed in CHO cells measured by FLIPR assay. In kind it is functional, cell-based.
Sequence of Free fatty acid receptor 1 (O14842 whole entry): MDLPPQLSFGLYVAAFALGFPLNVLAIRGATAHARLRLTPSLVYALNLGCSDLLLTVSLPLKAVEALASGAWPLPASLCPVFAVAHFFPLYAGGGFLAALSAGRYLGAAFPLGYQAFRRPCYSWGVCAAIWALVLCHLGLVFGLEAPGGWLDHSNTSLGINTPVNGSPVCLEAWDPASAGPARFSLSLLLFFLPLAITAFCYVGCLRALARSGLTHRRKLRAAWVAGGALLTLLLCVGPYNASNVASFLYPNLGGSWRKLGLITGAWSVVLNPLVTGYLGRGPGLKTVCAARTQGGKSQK
Data set [4] deals with Mus musculus. Briefly: Hypolipidemic activity in Triton1339W-induced hyperlipidemic ICR mouse model assessed as reduction in plasma TC level at 80 mg/kg, administered once daily for 5 days. Conditions: time 5.0 day. In kind it is functional, organism-based.
The target of data set [5] is T3, Peroxisome proliferator-activated receptor gamma (Homo sapiens, UniProt P37231).
T3 sequence (P37231 whole entry): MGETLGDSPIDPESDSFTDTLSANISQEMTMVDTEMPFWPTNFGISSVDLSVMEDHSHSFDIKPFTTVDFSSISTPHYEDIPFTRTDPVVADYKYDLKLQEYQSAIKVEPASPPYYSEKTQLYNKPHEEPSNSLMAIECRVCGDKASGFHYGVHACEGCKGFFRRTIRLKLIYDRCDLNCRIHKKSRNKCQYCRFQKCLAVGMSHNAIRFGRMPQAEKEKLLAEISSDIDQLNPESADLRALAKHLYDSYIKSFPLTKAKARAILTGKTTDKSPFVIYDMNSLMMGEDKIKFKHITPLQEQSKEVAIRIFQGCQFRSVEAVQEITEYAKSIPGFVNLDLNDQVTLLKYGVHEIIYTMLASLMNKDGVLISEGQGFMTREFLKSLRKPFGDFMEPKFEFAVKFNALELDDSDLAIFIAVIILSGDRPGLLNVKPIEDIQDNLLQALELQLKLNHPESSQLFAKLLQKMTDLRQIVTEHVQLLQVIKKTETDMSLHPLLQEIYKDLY
Briefly: Agonist activity at human PPARgamma measured by dual luciferase reporter gene assay.

Data set [6] relates to Mus musculus. The data set can be described thus: Hypolipidemic activity in Triton1339W-induced hyperlipidemic ICR mouse model assessed as reduction in plasma TG level at 80 mg/kg, administered once daily for 5 days. In kind it is functional, organism-based. The conditions noted are these: time 5.0 day.
In data set [7] the test system is Mus musculus. The data set can be described thus: Protection against CCl4-induced liver fibrosis in male C57BL/6 mouse assessed as decrease in collagen area in liver at 250 mg/kg measured by masson staining. It is filed as functional, organism-based.
Data set [8] deals with Mus musculus. The data set can be described thus: Protection against CCl4-induced liver fibrosis in male C57BL/6 mouse assessed as decrease in hepatic hydroxyproline content at 250 mg/kg […]. In kind it is functional, organism-based.
Data set [9] can be described thus: Clearance in rat liver microsomes in presence of NADPH measured by LC/MS analysis. In kind it is ADME, Microsome. The conditions noted are these: read-out: CLH. A general note: Liver microsomes are a subcellular fraction often used to study metabolism.
Data set [10] concerns Mus musculus. Briefly: Anti-fibrotic activity in high-fat/high-sugar diet and CCl4-induced nonalcoholic steatohepatitis male C57BL/6 mouse assessed as decrease in COL1A1 mRNA expression at 100 mg/kg, po administered for 4 weeks. In kind it is functional, organism-based.
The test system of data set [11] is Mus musculus. Briefly: Anti-NASH activity in high-fat/high-sugar diet and CCl4-induced nonalcoholic steatohepatitis male C57BL/6 mouse assessed as decrease in lobular inflammation score at 100 mg/kg, po administered for 4 weeks. In kind it is functional, organism-based.
Data set [12] is described as follows: Half-life in rat liver microsomes in presence of NADPH measured by LC/MS analysis. It is filed as ADME, Microsome.
In data set [13] the test system is Mus musculus. The data set can be described thus: Anti-NASH activity in high-fat/high-sugar diet and CCl4-induced nonalcoholic steatohepatitis male C57BL/6 mouse assessed as decrease in hepatocyte ballooning score at 100 mg/kg, po administered for 4 weeks. It is filed as functional, organism-based.
The test system of data set [14] is Mus musculus. Briefly: Anti-NASH activity in high-fat/high-sugar diet and CCl4-induced nonalcoholic steatohepatitis male C57BL/6 mouse assessed as decrease in disease activity score at 100 mg/kg, po administered for 4 weeks. In kind it is functional, organism-based.
Data set [15] has as its system Mus musculus. Briefly: Protection against liver fibrosis in high-fat/high-sugar diet and CCl4-induced nonalcoholic steatohepatitis male C57BL/6 mouse assessed as decrease in collagen area at 100 mg/kg, po administered for 4 weeks. In kind it is functional, organism-based.
The subject of data set [16] is Mus musculus. The data set can be described thus: Protection against liver fibrosis in high-fat/high-sugar diet and CCl4-induced nonalcoholic steatohepatitis male C57BL/6 mouse assessed as decrease in alpha-SMA expression in liver at 100 mg/kg, po administered for 4 weeks. It is filed as functional, organism-based.
The test system of data set [17] is Mus musculus. The data set can be described thus: Anti-NASH activity in high-fat/high-sugar diet and CCl4-induced nonalcoholic steatohepatitis male C57BL/6 mouse assessed as decrease in F4/80 expression at 100 mg/kg, po administered for 4 weeks. In kind it is functional, organism-based.

The source made the active and inactive calls. The rule behind the calls is not given here.

Usually EC50 stands for the concentration that produces a half-maximal response. A high value points to a need for much substance. What is called half-life is how long it takes for the measured level to halve.

In the case of `O=C(O)COc1ccc(COc2cccc(-c3nc4cc(Cl)ccc4o3)c2)cc1F`, the EC50 in data set [1] was found to be 10.8 µM; in data set [2] it was 20.8 µM; in data set [3] it was 6.8 µM.

As for `COc1ccc(-c2cccc(OCc3ccc(OCC(=O)O)c(F)c3)c2)cc1`, the outcome in [4] was Active. Moreover, in data set [3], the EC50 was 0.4 µM.

Turning to `COc1ccc(/C=C/c2cc(OC)cc(OCc3ccc(OCC(=O)O)cc3)c2)cc1`, the concentration for a half-maximal effect (EC50) in data set [1] turned out to be 20.8 µM; in [5], 15.6 µM; in data set [2] it was 8.75 µM; in data set [3], 10.3 µM. Besides, the result in data set [6] and in [4] was Active.

Take `COc1ccc(/C=C/c2cc(OC)cc(OCc3ccc(OCC(=O)O)c(C)c3)c2)cc1`: the figures for the concentration for a half-maximal effect (EC50) in data set [1], in data set [5] and in data set [2] were 7.6 µM, 20.7 µM and 5.16 µM, respectively. Moreover, the outcome in data set [6] and in data set [4] was Active.

For the molecule `Cc1ccc2[nH]c(-c3cccc(OCCCCCCCC(=O)O)c3)nc2c1`, the 50% effective concentration (EC50) in data set [1] came to 6.3 µM; in data set [5], 10.2 µM.

Take `O=C(O)COc1ccc(COc2cccc(-c3nc4ccccc4s3)c2)cc1F`: the EC50 in data set [1] is 7.8 µM; in [2] it was 10.2 µM; in data set [3], 2.1 µM.

With `O=C(O)COc1ccc(COc2cc(/C=C/c3ccc(OCC4CC4)cc3)cc(OCC3CC3)c2)cc1F`, the EC50 in [1] is 10.3 µM; in [5], 24.5 µM; in data set [2], 8.37 µM. The result in data set [6] and in data set [4] was Active.

`COc1ccc(/C=C/c2cc(OC)cc(OCc3ccc(OC(C)(C)C(=O)O)c(F)c3)c2)cc1`: the half-maximal effective concentration (EC50) in data set [1] stood at 2.35 µM; in data set [5], 20.6 µM; in data set [2], 2.8 µM. The outcome in data set [6] and in [4] was Active.

Regarding `O=C(O)COc1ccc(COc2cccc(-c3ccc4cc(OCC5CC5)ccc4c3)c2)cc1F`, the concentration for a half-maximal effect (EC50) turned out to be 9.6 µM in data set [1] and 7.2 µM in [2].

`COc1ccc2cc(-c3cccc(OCc4ccc(OCC(=O)O)c(F)c4)c3)ccc2c1`: the EC50 in data set [1] is 10.5 µM; in data set [2] it was 7.8 µM.

In the case of `COc1ccc2ccc(-c3cccc(OCc4ccc(OCC(=O)O)c(F)c4)c3)cc2c1`, the EC50 in [1] was 15.6 µM; in [2], 10.8 µM.

As for `Cc1ccc(=O)n(-c2ccccc2)c1`, the outcome in [7] and in [8] was Active.

Turning to `COc1ccc(/C=C/c2cc(OC)cc(OCc3ccc(OC(C)C(=O)O)c(F)c3)c2)cc1` (stereo not given), the values for the concentration for a half-maximal effect (EC50) in data set [1], in data set [5] and in data set [2] were 8.72 µM, 18.2 µM and 4.5 µM, respectively. Further, the result in [6] and in [4] was Active.

With `COc1ccc(/C=C/c2cc(OC)cc(OCCCCCCCC(=O)O)c2)cc1`, in [9], the microsomal CLint came out at 72 µL/min/mg. For the same molecule, the EC50 in data set [1] came to 7.5 µM; in [5], 25.8 µM; in data set [2] it was 6.5 µM; in data set [3], 1.8 µM. In addition, the outcome in [6], in data set [10], in [4], in data set [11], in data set [13] and in [14] was Active. For the same molecule, the outcome in [15], in data set [16] and in [17] was Active. For the same molecule, the half-life in [12] came out at 19.3 min.

`CCOc1ccc(/C=C/c2cc(OCC)cc(OCc3ccc(OCC(=O)O)c(F)c3)c2)cc1`: the EC50 in [1] was found to be 12.9 µM; in data set [5], 22.6 µM; in data set [2], 5.7 µM; in data set [3], 4.2 µM. Moreover, the outcome in data set [6] and in data set [4] was Active.

Values taken from ChEMBL document CHEMBL5154671 (Eur J Med Chem, 2022).
